Source: paper PMC5487684, “Safety, Pharmacokinetics, and Antiviral Activity of a Novel HIV Antiviral, ABX464, in Treatment-Naive HIV-Infected Subjects in a Phase 2 Randomized, Controlled Study” (Antimicrobial Agents and Chemotherapy, 2017)
“Also recorded” adds a separate entry of the source.

Tests used:
[1] = system: HIV; experiment: HIV viral load (HIV-1 RNA copies per milliliter) in treatment-naive HIV-infected patients; assay type: in vivo
Method: Safety assessments and laboratory tests were carried out according to the schedules described in Table S4 for groups dosed every day, every 3 days, and 3 times a day. Follow-up visits were scheduled for 7 days after the last dose and subsequently once every week in order to assess the elimination of the main ABX464 metabolite and to assess the viral load. Follow-up visits were terminated when the virus load was within 0.5 log of the baseline value or after 3 follow-up visits, whichever came first. Prior to the statistical analyses, AEs were coded using the Medical Dictionary for Regulatory Activities (MedDRA dictionary; last available version) in order to be tabulated by system organ class (SOC) and preferred term (PT). The AEs were analyzed according to the treatment emergence phase from the first study drug administration on day 1 up to 48 h after the last study drug administration. The number and percentage of subjects with at least one TEAE were tabulated by SOC and PT for each group and dose. The number of occurrences of TEAEs was also analyzed in the same way by SOC and PT for each group and dose, by grade of severity for each group and dose, and by level of causality to the study drug for each group and dose.
Plasma samples were analyzed for ABX464 and ABX464-NGlc using validated bioanalytical methods by Atlanbio (Saint Nazaire, France) according to good laboratory practices. Pharmacokinetic parameters were calculated by noncompartmental analysis (NCA), using Phoenix WinNonlin software (Pharsight Corporation) running on a personal computer. On day 1, the following PK parameters were generated: Cmax, the time to Cmax (Tmax), lag time (tlag), elimination rate constant (kel), area under the concentration-time curve (AUC) from time zero to time t (AUC0–t), AUC from time zero to infinity (AUC0–∞), apparent clearance (CL/F), and apparent volume of distribution (V/F). On the other days of PK assessment, only Cmax, Tmax, tlag, kel, and AUC0–t were generated. The secondary analysis concerned pharmacodynamic (PD) activity, as expressed by CD4 and CD8 levels and viral load across time. The HIV viral load was analyzed in the prequalified individual local study center laboratories. CD4 and CD8 cell counts were also determined in the local study center laboratories. With respect to the viral load, changes in the log-transformed viral load values between 24 h postdose and predose were calculated on each day, and a comparison between each dose level and pooled placebo data was made. Moreover, the rate of success (defined as a decrease in the viral load value of at least 0.5 log) was evaluated for each treatment (including placebo) and compared between treatments.
No formal sample size determination was done. The aim of the study was to obtain reliable and consistent data and to expose a limited number of subjects to ABX464. To achieve this aim, six subjects per group received ABX464. A mixed model analysis of covariance of the changes in the viral load compared to that at the baseline was conducted on log-transformed values. Baseline parameters and age were covariates, treatment groups were fixed effects, and subjects were random effects.

[2] = system: HIV; set-up: method as in PMID 25889234; details: human PBMCs, treatment for at least 24 weeks; cited from earlier work
[3] = system: HIV replication in PBMCs; set-up: method as in PMID 25889234; details: in vitro; cited from earlier work

SMILES: FC(F)(F)Oc1ccc(Nc2ccc3cccc(Cl)c3n2)cc1 [ABX464]
- Change in log10 no. of RNA copies/ml from that at the baseline ([1]; Group 1 (25 mg every 3 days, fasted), subject 106, day 16): −0.74 log10 no. of RNA copies/ml
- Change in log10 no. of RNA copies/ml from that at the baseline ([1]; Group 1 (25 mg every 3 days, fasted), subject 106, day 17): −0.51 log10 no. of RNA copies/ml
- Change in log10 no. of RNA copies/ml from that at the baseline ([1]; Group 1 (25 mg every 3 days, fasted), subject 106, day 19): −0.61 log10 no. of RNA copies/ml
- Change in log10 no. of RNA copies/ml from that at the baseline ([1]; Group 2 (25 mg q.d., fasted), subject 201, day 14): −0.54 log10 no. of RNA copies/ml
- Change in log10 no. of RNA copies/ml from that at the baseline ([1]; Group 4 (50 mg t.i.d., fed), subject 2007, day 10): −0.62 log10 no. of RNA copies/ml
- Change in log10 no. of RNA copies/ml from that at the baseline ([1]; Group 4 (50 mg t.i.d., fed), subject 2009, day 10): −0.72 log10 no. of RNA copies/ml
- Change in log10 no. of RNA copies/ml from that at the baseline ([1]; Group 4 (50 mg t.i.d., fed), subject 2009, day 14): −1.23 log10 no. of RNA copies/ml
- Change in log10 no. of RNA copies/ml from that at the baseline ([1]; Group 4 (50 mg t.i.d., fed), subject 2009, day 18): −1.39 log10 no. of RNA copies/ml
- Change in log10 no. of RNA copies/ml from that at the baseline ([1]; Group 5 (75 mg q.d., fed), subject 605, day 2): −0.71 log10 no. of RNA copies/ml
- Change in log10 no. of RNA copies/ml from that at the baseline ([1]; Group 5 (75 mg q.d., fed), subject 605, day 4): −0.77 log10 no. of RNA copies/ml
- Change in log10 no. of RNA copies/ml from that at the baseline ([1]; Group 5 (75 mg q.d., fed), subject 605, day 5): −0.76 log10 no. of RNA copies/ml
- Change in log10 no. of RNA copies/ml from that at the baseline ([1]; Group 5 (75 mg q.d., fed), subject 605, day 7): −0.89 log10 no. of RNA copies/ml
- Change in log10 no. of RNA copies/ml from that at the baseline ([1]; Group 5 (75 mg q.d., fed), subject 605, day 8): −0.83 log10 no. of RNA copies/ml
- Change in log10 no. of RNA copies/ml from that at the baseline ([1]; Group 5 (75 mg q.d., fed), subject 605, day 10): −1.06 log10 no. of RNA copies/ml
- Change in log10 no. of RNA copies/ml from that at the baseline ([1]; Group 5 (75 mg q.d., fed), subject 605, day 11): −1.05 log10 no. of RNA copies/ml
- Change in log10 no. of RNA copies/ml from that at the baseline ([1]; Group 6 (100 mg q.d., fasted), subject 804, day 11): −0.52 log10 no. of RNA copies/ml
- Change in log10 no. of RNA copies/ml from that at the baseline ([1]; Group 6 (100 mg q.d., fasted), subject 804, day 15): −0.59 log10 no. of RNA copies/ml
- Change in log10 no. of RNA copies/ml from that at the baseline ([1]; Group 6 (100 mg q.d., fasted), subject 807, day 11): −0.51 log10 no. of RNA copies/ml
- Change in log10 no. of RNA copies/ml from that at the baseline ([1]; Group 6 (100 mg q.d., fasted), subject 807, day 18): −1.44 log10 no. of RNA copies/ml
- Change in log10 no. of RNA copies/ml from that at the baseline ([1]; Group 7 (150 mg every 3 days, fed), subject 908, day 16): −0.72 log10 no. of RNA copies/ml
- Change in log10 no. of RNA copies/ml from that at the baseline ([1]; Group 7 (150 mg every 3 days, fed), subject 908, day 19): −0.53 log10 no. of RNA copies/ml
- Change in log10 no. of RNA copies/ml from that at the baseline ([1]; Group 7 (150 mg every 3 days, fed), subject 908, day 20): −0.59 log10 no. of RNA copies/ml
- Change in log10 no. of RNA copies/ml from that at the baseline ([1]; Group 8 (150 mg q.d., fed), subject 1001, day 10): −0.5 log10 no. of RNA copies/ml
- Change in log10 no. of RNA copies/ml from that at the baseline ([1]; Group 8 (150 mg q.d., fed), subject 1001, day 11): −0.62 log10 no. of RNA copies/ml
- Change in log10 no. of RNA copies/ml from that at the baseline ([1]; Group 8 (150 mg q.d., fed), subject 1001, day 14): −0.72 log10 no. of RNA copies/ml
- Change in log10 no. of RNA copies/ml from that at the baseline ([1]; Group 8 (150 mg q.d., fed), subject 1001, day 15): −0.68 log10 no. of RNA copies/ml
- Change in log10 no. of RNA copies/ml from that at the baseline ([1]; Group 8 (150 mg q.d., fed), subject 1004, day 10): −0.5 log10 no. of RNA copies/ml
- Change in log10 no. of RNA copies/ml from that at the baseline ([1]; Group 8 (150 mg q.d., fed), subject 1004, day 14): −0.51 log10 no. of RNA copies/ml
- Change in log10 no. of RNA copies/ml from that at the baseline ([1]; Group 8 (150 mg q.d., fed), subject 1004, day 15): −0.51 log10 no. of RNA copies/ml
- Change in log10 no. of RNA copies/ml from that at the baseline ([1]; Group 8 (150 mg q.d., fed), subject 1005, day 7): −0.53 log10 no. of RNA copies/ml
- Change in log10 no. of RNA copies/ml from that at the baseline ([1]; Group 8 (150 mg q.d., fed), subject 1005, day 11): −0.52 log10 no. of RNA copies/ml
- Change in log10 no. of RNA copies/ml from that at the baseline ([1]; Group 8 (150 mg q.d., fed), subject 1008, day 8): −0.59 log10 no. of RNA copies/ml
- Change in log10 no. of RNA copies/ml from that at the baseline ([1]; Group 8 (150 mg q.d., fed), subject 1008, day 10): −0.57 log10 no. of RNA copies/ml
- Change in log10 no. of RNA copies/ml from that at the baseline ([1]; Group 8 (150 mg q.d., fed), subject 1008, day 11): −0.56 log10 no. of RNA copies/ml
- Change in log10 no. of RNA copies/ml from that at the baseline ([1]; Group 8 (150 mg q.d., fed), subject 1008, day 14): −0.53 log10 no. of RNA copies/ml
- Mean changes in the viral load vs placebo group ([1]; any time point over the 14-day study period, all treatment groups): No statistically significant differences
- Subjects with a decrease of ≥0.5 log10 in HIV RNA load ([1]; group 1, 25 mg every 3 days, fasted): 3 subjects
- Subjects with a decrease of ≥0.5 log10 in HIV RNA load ([1]; group 2, 25 mg q.d., fasted): 1 subjects
- Subjects with a decrease of ≥0.5 log10 in HIV RNA load ([1]; group 4, 50 mg t.i.d., fed): 2 subjects
- Subjects with a decrease of ≥0.5 log10 in HIV RNA load ([1]; group 5, 75 mg q.d., fed): 1 subjects
- Subjects with a decrease of ≥0.5 log10 in HIV RNA load ([1]; group 6, 100 mg q.d., fasted): 2 subjects
- Subjects with a decrease of ≥0.5 log10 in HIV RNA load ([1]; group 7, 150 mg every 3 days, fed): 1 subjects
- Subjects with a decrease of ≥0.5 log10 in HIV RNA load ([1]; group 8, 150 mg q.d. for 2 weeks, fed (6 treated)): 4 subjects
- Development of drug resistance in vitro [2]: no development of resistance-inducing mutations; also recorded: did not induce any drug resistance
- Antiviral effect on HIV replication in PBMCs [3]: can inhibit HIV replication
